The values below come from patent US20240228504A1, “SUBSTITUTED TRICYCLIC AMIDES, ANALOGUES THEREOF, AND METHODS USING SAME” (Arbutus Biopharma Corporation, priority 2020, published 2024).

The first test deals with HBV rcDNA in HepDE19 cells. The test can be described thus: HepDE19 assay with bDNA quantitation of HBV rcDNA. Particulars: HepDE19 assay, inhibition of rcDNA formation, bDNA quantitation; read-out: DE-19bDNA EC50. The format is cell-based, hepatitis B virus.
One may read the EC50 as the concentration that produces a half-maximal response. With `CN(C(=O)c1cc2c(Cl)cccn2c1)C1CNCc2[nH]c(=O)c3cc(F)c(F)cc3c21` (single isomer, unassigned) [Compound 509, 8-Chloro-N-(8,9-Difluoro-6-oxo-1,2,3,4,5,6-hexahydrobenzo[c][1,7]naphthyridin-1-yl)-N-methylindolizine-2-carboxamide], the EC50 stood at 0.01 µM.

With `CN(C(=O)C1Cc2c(F)cc(F)cc2N1)C1COCc2[nH]c(=O)c3cc(F)c(F)cc3c21` (stereo not drawn) [Compound 13, N-(8,9-Difluoro-6-oxo-1,4,5,6-tetrahydro-2H-pyrano[3,4-c]isoquinolin-1-yl)-4,6-difluoro-N-methylindoline-2-carboxamide], the concentration for a half-maximal effect (EC50) is 12 µM.

With `CN(C(=O)C1Cc2c(F)cc(F)cc2N1)C1COCc2[nH]c(=O)c3cc(F)c(F)cc3c21` (stereo not drawn) [Compound 14, N-(8,9-Difluoro-6-oxo-1,4,5,6-tetrahydro-2H-pyrano[3,4-c]isoquinolin-1-yl)-4,6-difluoro-N-methylindoline-2-carboxamide], the EC50 stood at 0.04 µM.

Take `CN(C(=O)C1Cc2c(F)cc(F)cc2N1)C1COCc2[nH]c(=O)c3cc(F)c(F)cc3c21` (stereo not drawn) [Compound 15, N-(8,9-Difluoro-6-oxo-1,4,5,6-tetrahydro-2H-pyrano[3,4-c]isoquinolin-1-yl)-4,6-difluoro-N-methylindoline-2-carboxamide]: the 50% effective concentration (EC50) came out at 0.96 µM.

With `CN(C(=O)C1Cc2c(F)cc(F)cc2N1)C1COCc2[nH]c(=O)c3cc(F)c(F)cc3c21` (stereo not drawn) [Compound 16, N-(8,9-Difluoro-6-oxo-1,4,5,6-tetrahydro-2H-pyrano[3,4-c]isoquinolin-1-yl)-4,6-difluoro-N-methylindoline-2-carboxamide], the EC50 is 0.02 µM.

With `CN(C(=O)C1Nc2ccccc2C1(C)C)C1COCc2[nH]c(=O)c3cc(F)c(F)cc3c21` (stereo not drawn) [Compound 57, N-(8,9-Difluoro-6-oxo-1,4,5,6-tetrahydro-2H-pyrano[3,4-c]isoquinolin-1-yl)-N,3,3-trimethylindoline-2-carboxamide], the EC50 was 23 µM.

Regarding `CN(C(=O)C1Nc2ccccc2C1(C)C)C1COCc2[nH]c(=O)c3cc(F)c(F)cc3c21` (stereo not drawn) [Compound 59, N-(8,9-Difluoro-6-oxo-1,4,5,6-tetrahydro-2H-pyrano[3,4-c]isoquinolin-1-yl)-N,3,3-trimethylindoline-2-carboxamide], the EC50 is 22 µM.

Still in this test, the particulars now being: Hepatitis B virus, HepDE19, HepDE19 assay, inhibition of rcDNA formation, bDNA quantitation; read-out: DE-19bDNA EC50.
On to `CN(C(=O)c1cc2cc(F)c(F)cc2[nH]1)[C@H]1COCc2[nH]c(=O)c3cc(F)c(F)cc3c21` [Compound 41, N-(8,9-difluoro-6-oxo-1,4,5,6-tetrahydro-2H-pyrano[3,4-c]isoquinolin-1-yl)-5,6-difluoro-N-methyl-1H-indole-2-carboxamide], for which the concentration for a half-maximal effect (EC50) was found to be 2.2 µM.

Regarding `CN(C(=O)c1cc2cc(F)c(F)cc2[nH]1)[C@@H]1COCc2[nH]c(=O)c3cc(F)c(F)cc3c21` [Compound 42, (S)-N-(8,9-difluoro-6-oxo-1,4,5,6-tetrahydro-2H-pyrano[3,4-c]isoquinolin-1-yl)-5,6-difluoro-N-methyl-1H-indole-2-carboxamide], the EC50 is 0.005 µM.

Consider `CN(C(=O)c1cn2cc(Cl)ccc2n1)[C@@H]1COCc2[nH]c(=O)c3cc(F)c(F)cc3c21` [Compound 51, (S)-6-Chloro-N-(8,9-difluoro-6-oxo-1,4,5,6-tetrahydro-2H-pyrano[3,4-c]isoquinolin-1-yl)-N-methylimidazo[1,2-a]pyridine-2-carboxamide], for which the EC50 stood at 1.3 µM.

As to `CN(C(=O)c1cn2cc(Cl)ccc2n1)[C@@H]1COCc2[nH]c(=O)c3cc(F)ccc3c21` [Compound 52, (S)-6-Chloro-N-(8-fluoro-6-oxo-1,4,5,6-tetrahydro-2H-pyrano[3,4-c]isoquinolin-1-yl)-N-methylimidazo[1,2-a]pyridine-2-carboxamide], the EC50 is 4.1 µM.

As to `CCN(C(=O)c1cn2cc(Cl)ccc2n1)[C@@H]1COCc2[nH]c(=O)c3cc(F)ccc3c21` [Compound 53, (S)-6-Chloro-N-ethyl-N-(8-fluoro-6-oxo-1,4,5,6-tetrahydro-2H-pyrano[3,4-c]isoquinolin-1-yl)imidazo[1,2-a]pyridine-2-carboxamide], the EC50 was 2.5 µM.

With `CN(C(=O)C1Nc2ccccc2C1(C)C)C1COCc2[nH]c(=O)c3cc(F)c(F)cc3c21` (stereo not drawn) [Compound 56, N-(8,9-Difluoro-6-oxo-1,4,5,6-tetrahydro-2H-pyrano[3,4-c]isoquinolin-1-yl)-N,3,3-trimethylindoline-2-carboxamide], the EC50 stood at 18 µM.

On to `CN(C(=O)c1cc2ccccn2n1)[C@@H]1COCc2[nH]c(=O)c3cc(F)c(F)cc3c21` [Compound 64, (S)-N-(8,9-Difluoro-6-oxo-1,4,5,6-tetrahydro-2H-pyrano[3,4-c]isoquinolin-1-yl)-N-methylpyrazolo[1,5-a]pyridine-2-carboxamide], for which the EC50 came out at 0.63 µM.

As to `CN(C(=O)c1cc2cccnn2c1)[C@@H]1COCc2[nH]c(=O)c3cc(F)c(F)cc3c21` [Compound 65, (S)-N-(8,9-Difluoro-6-oxo-1,4,5,6-tetrahydro-2H-pyrano[3,4-c]isoquinolin-1-yl)-N-methylpyrrolo[1,2-b]pyridazine-6-carboxamide], the EC50 came to 0.15 µM.

Take `CN(C(=O)c1ccc2cccnc2c1)[C@@H]1COCc2[nH]c(=O)c3cc(F)c(F)cc3c21` [Compound 66, (S)-N-(8,9-Difluoro-6-oxo-1,4,5,6-tetrahydro-2H-pyrano[3,4-c]isoquinolin-1-yl)-N-methylquinoline-7-carboxamide]: the EC50 worked out at 2.3 µM.

For the compound `CN(C(=O)c1ccc2ncccc2c1)[C@@H]1COCc2[nH]c(=O)c3cc(F)c(F)cc3c21` [Compound 67, (S)-N-(8,9-Difluoro-6-oxo-1,4,5,6-tetrahydro-2H-pyrano[3,4-c]isoquinolin-1-yl)-N-methylquinoline-6-carboxamide], the concentration for a half-maximal effect (EC50) was determined as 1.6 µM.

Regarding `CN(C(=O)c1ccc2nncn2c1)[C@@H]1COCc2[nH]c(=O)c3cc(F)c(F)cc3c21` [Compound 70, (S)-N-(8,9-Difluoro-6-oxo-1,4,5,6-tetrahydro-2H-pyrano[3,4-c]isoquinolin-1-yl)-N-methyl-[1,2,4]triazolo[4,3-a]pyridine-6-carboxamide], the EC50 turned out to be 22 µM.

Take `CN(C(=O)c1cnc2ccccc2c1)[C@@H]1COCc2[nH]c(=O)c3cc(F)c(F)cc3c21` [Compound 71, (S)-N-(8,9-Difluoro-6-oxo-1,4,5,6-tetrahydro-2H-pyrano[3,4-c]isoquinolin-1-yl)-N-methylquinoline-3-carboxamide]: the half-maximal effective concentration (EC50) was determined as 0.33 µM.

As to `CN(C(=O)c1ccc2nccnc2c1)[C@@H]1COCc2[nH]c(=O)c3cc(F)c(F)cc3c21` [Compound 72, (S)-N-(8,9-Difluoro-6-oxo-1,4,5,6-tetrahydro-2H-pyrano[3,4-c]isoquinolin-1-yl)-N-methylquinoxaline-6-carboxamide], the EC50 amounted to 3.8 µM.

Consider `CN(C(=O)c1ccc(C(F)(F)F)nc1)[C@@H]1COCc2[nH]c(=O)c3cc(F)c(F)cc3c21` [Compound 73, (S)-N-(8,9-Difluoro-6-oxo-1,4,5,6-tetrahydro-2H-pyrano[3,4-c]isoquinolin-1-yl)-N-methyl-6-(trifluoromethyl)nicotinamide], for which the concentration for a half-maximal effect (EC50) was found to be 0.12 µM.

`CN(C(=O)c1ccc(C(F)(F)F)c(F)c1)[C@@H]1COCc2[nH]c(=O)c3cc(F)c(F)cc3c21` [Compound 74, (S)-N-(8,9-Difluoro-6-oxo-1,4,5,6-tetrahydro-2H-pyrano[3,4-c]isoquinolin-1-yl)-3-fluoro-N-methyl-4-(trifluoromethyl)benzamide]: the EC50 is 0.01 µM.

As for `CN(C(=O)c1ccc(Cl)c(F)c1)[C@@H]1COCc2[nH]c(=O)c3cc(F)c(F)cc3c21` [Compound 75, (S)-4-Chloro-N-(8,9-difluoro-6-oxo-1,4,5,6-tetrahydro-2H-pyrano[3,4-c]isoquinolin-1-yl)-3-fluoro-N-methylbenzamide], the EC50 came out at 0.02 µM.

On to `CN(C(=O)c1cc(F)c(F)c(F)c1)[C@@H]1COCc2[nH]c(=O)c3cc(F)c(F)cc3c21` [Compound 76, (S)-N-(8,9-Difluoro-6-oxo-1,4,5,6-tetrahydro-2H-pyrano[3,4-c]isoquinolin-1-yl)-3,4,5-trifluoro-N-methylbenzamide], for which the EC50 worked out at 0.09 µM.

As for `CN(C(=O)c1cncc(F)c1)[C@@H]1COCc2[nH]c(=O)c3cc(F)c(F)cc3c21` [Compound 83, (S)-N-(8,9-Difluoro-6-oxo-1,4,5,6-tetrahydro-2H-pyrano[3,4-c]isoquinolin-1-yl)-5-fluoro-N-methylnicotinamide], the EC50 amounted to 7 µM.

Consider `CN(C(=O)c1cncc(Cl)c1)[C@@H]1COCc2[nH]c(=O)c3cc(F)c(F)cc3c21` [Compound 84, (S)-5-Chloro-N-(8,9-difluoro-6-oxo-1,4,5,6-tetrahydro-2H-pyrano[3,4-c]isoquinolin-1-yl)-N-methylnicotinamide], for which the EC50 is 5.7 µM.

As to `CN(C(=O)c1ccnc(F)c1)[C@@H]1COCc2[nH]c(=O)c3cc(F)c(F)cc3c21` [Compound 85, (S)-N-(8,9-Difluoro-6-oxo-1,4,5,6-tetrahydro-2H-pyrano[3,4-c]isoquinolin-1-yl)-2-fluoro-N-methylisonicotinamide], the EC50 worked out at 0.63 µM.

For the compound `CN(C(=O)c1cccc(C(F)F)c1)[C@@H]1COCc2[nH]c(=O)c3cc(F)c(F)cc3c21` [Compound 86, (S)-N-(8,9-Difluoro-6-oxo-1,4,5,6-tetrahydro-2H-pyrano[3,4-c]isoquinolin-1-yl)-3-(difluoromethyl)-N-methylbenzamide], the EC50 came out at 0.03 µM.

As to `CN(C(=O)[C@@H](O)Cc1ccccc1)[C@@H]1COCc2[nH]c(=O)c3cc(F)c(F)cc3c21` [Compound 87, (S)-N-((S)-8,9-Difluoro-6-oxo-1,4,5,6-tetrahydro-2H-pyrano[3,4-c]isoquinolin-1-yl)-2-hydroxy-N-methyl-3-phenylpropanamide], the EC50 is 3.2 µM.

Consider `CN(C(=O)[C@H](O)Cc1ccccc1)[C@@H]1COCc2[nH]c(=O)c3cc(F)c(F)cc3c21` [Compound 88, (R)-N-((S)-8,9-Difluoro-6-oxo-1,4,5,6-tetrahydro-2H-pyrano[3,4-c]isoquinolin-1-yl)-2-hydroxy-N-methyl-3-phenylpropanamide], for which the EC50 is 0.48 µM.
